From patent US20020004495A1, “Methods for stimulating bone formation” (priority 1998, published 2002) come the findings set out here.

The test system of one assay is RCT-3 cells. Put plainly: Intracellular cAMP in RCT-3 cells. It is filed as cell-based, rat. How it is done:
(§1) RCT-1 and RCT-3 are clonal cell lines immortalized by SV-40 large T antigen from cells released from fetal rat calvair by a cmbination collagenase/hyaluronidase digestion. RCT-1 cells, derived from cells released during the first 10 minutes of digestion (fraction I), are cultured in RPMI 1640 medium (BRL) with 10% fetal bovine serum and 0.4 mg/ml G418 (BRL). […] RCT-3 cells, immortalized from osteoblast-enriched fraction III cells, are cultured in F-12 medium (BRL) with 5% Fetal bovine serum and 0.4 mg/ml G418. TRAB-11 cells are also immortalized by SV40 large T antigen from adult rat tibia and are cultured in RPMI 1640 medium with 10% FBS and 0.4 mg/ml G418. ROS 17/2.8 rat osteosarcoma cells are cultured in F-12 containing 5% FBS. Osteoblast-enriched (fraction III) primary fetal rat calvaria cells are obtained by collagenase/hyaluronidase digestion of calvariae of 19 day-old rat fetuses. See Rodan et al., Growth stimulation of rat calvaria osteoblastic cells by acidic FGF, Endocrinology, 121, 1919-1923 (1987), which is incorporated by reference herein in its entirety. Cells are released during 30-50 minutes digestion (fraction III) and are cultured in F-12 medium containing 5% FBS. […]

Assay [1] relates to ROS 17/2.8 rat osteosarcoma cells. Put plainly: Intracellular cAMP in ROS 17/2.8 cells. It counts as cell-based. On the procedure: as §1
Assay [2] deals with EP4 mRNA in RP-1 periosteal cells. Put plainly: EP4 mRNA in RP-1 periosteal cells (Northern blot). It is filed as cell-based, rat. The following applies: 10^-6 M. How it is done: (§2) RP-1 periosteal cells are spontaneously immortalized from primary cultures of periosteal cells from tibae of 4-week old Sprague-Dawley rats and are cultured in DMEM (BRL, Gaithersburg, Md.) with 10% fetal bovine serum (JRH Biosciences, Lenexa, Kans.). […] Total RNA is extracted from the tibial metaphysis or diaphysis and calvaria using a guanidinium isothiocyanate-phenol-chloroform method after pulverizing frozen bone samples by a tissue homogenizer. See P. Chomczynski et al., Single-step method of RNA isolation by acid guanidium thiocyanate-phenol-chloroform extraction., Analyt Biochem, 162, 156-159 (1987), which is incorporated by reference herein in its entirety. RNA samples ([…]) are separated on 0.9% agarose/formaldehyde gels and transferred onto nylon membranes (Boehringer Mannheim, Germany). Membranes are prehybridized in Hybrisol I (Oncor, Gaithersburg, Md.) and 0.5 mg/ml sonicated salmon sperm DNA (Boehringer) at 42° C. for 3 hours and are hybridized at 42° C. with rat EP2 and mouse EP4 cDNA probes labeled with [^32P]-dCTP (Amersham, Buckinghamshire, UK) by random priming using the rediprime kit (Amersham). After hybridization, membranes are washed 4 times in 2×SSC+0.1% SDS at room temperature for a total of 1 hour and once with 0.2×SSC+0.1% SDS at 55° C. for 1 hour and then exposed to Kodak XAR 2 film at −70° C. using intensifying screens. […]

Assay [3] has as its system EP4 expression in bone marrow cells. Put plainly: In situ hybridization of EP4 in rat tibia. It is filed as in vivo. The following applies: rats, single anabolic dose, tibial metaphysis. On the procedure:
For mRNA localization experiments, 5-week old Sprague-Dawley rats (Charles River) are euthanized by CO2, their tibiae and calvariae are excised, cleaned of soft tissues and frozen immediately in liquid nitrogen. For EP4 regulation experiments, 6-week old rats are given a single injection of either vehicle (7% ethanol in sterile water) or an anabolic dose of PGE2 (Cayman Chemical, Ann Arbor, Mich.), 3-6 mg/kg in the same vehicle) intraperitoneally. Animals are euthanized at several time points post-injection and their tibiae and calvariae, as well as samples from lung and kidney tissues are frozen in liquid nitrogen.
Frozen tibiae are sectioned coronally at […] thickness and sections are mounted on charged slides (Probe On Plus, Fisher Scientific, Springfield, N.J.) and are kept at −70° C. until hybridization. cRNA probes are labeled with ^35S-UTPgS (ICN, Costa Mesa, Calif.) using a Riboprobe II kit (Promega Madison, Wis.). Hybridization is performed overnight at 50° C. […]
In situ hybridization is used in order to localize cells expressing EP4 in bone In control experiment (vehicle-injected) rats, low expression of EP4 is detected in bone marrow cells. […]

The test system of a further assay is EP4 mRNA in RCT-3 cells. In words: EP4 mRNA in RCT-3 cells (Northern blot). It counts as cell-based, rat. How it is done:
RCT-1 and RCT-3 are clonal cell lines immortalized by SV-40 large T antigen from cells released from fetal rat calvair by a cmbination collagenase/hyaluronidase digestion. RCT-1 cells, derived from cells released during the first 10 minutes of digestion (fraction I), are cultured in RPMI 1640 medium (BRL) with 10% fetal bovine serum and 0.4 mg/ml G418 (BRL). […] RCT-3 cells, immortalized from osteoblast-enriched fraction III cells, are cultured in F-12 medium (BRL) with 5% Fetal bovine serum and 0.4 mg/ml G418. TRAB-11 cells are also immortalized by SV40 large T antigen from adult rat tibia and are cultured in RPMI 1640 medium with 10% FBS and 0.4 mg/ml G418. ROS 17/2.8 rat osteosarcoma cells are cultured in F-12 containing 5% FBS. Osteoblast-enriched (fraction III) primary fetal rat calvaria cells are obtained by collagenase/hyaluronidase digestion of calvariae of 19 day-old rat fetuses. See Rodan et al., Growth stimulation of rat calvaria osteoblastic cells by acidic FGF, Endocrinology, 121, 1919-1923 (1987), which is incorporated by reference herein in its entirety. Cells are released during 30-50 minutes digestion (fraction III) and are cultured in F-12 medium containing 5% FBS. Total RNA is extracted from the tibial metaphysis or diaphysis and calvaria using a guanidinium isothiocyanate-phenol-chloroform method after pulverizing frozen bone samples by a tissue homogenizer. […]

In assay [4] the test system is EP4 mRNA in tibiae and calvariae. In words: EP4 mRNA in rat bone tissue after systemic administration (Northern blot). It is filed as in vivo. How it is done:
For mRNA localization experiments, 5-week old Sprague-Dawley rats (Charles River) are euthanized by CO2, their tibiae and calvariae are excised, cleaned of soft tissues and frozen immediately in liquid nitrogen. For EP4 regulation experiments, 6-week old rats are given a single injection of either vehicle (7% ethanol in sterile water) or an anabolic dose of PGE2 (Cayman Chemical, Ann Arbor, Mich.), 3-6 mg/kg in the same vehicle) intraperitoneally. Animals are euthanized at several time points post-injection and their tibiae and calvariae, as well as samples from lung and kidney tissues are frozen in liquid nitrogen. Total RNA is extracted from the tibial metaphysis or diaphysis and calvaria using a guanidinium isothiocyanate-phenol-chloroform method after pulverizing frozen bone samples by a tissue homogenizer. See P. Chomczynski et al., Single-step method of RNA isolation by acid guanidium thiocyanate-phenol-chloroform extraction., Analyt Biochem, 162, 156-159 (1987), which is incorporated by reference herein in its entirety. RNA samples ([…]) are separated on 0.9% agarose/formaldehyde gels and transferred onto nylon membranes (Boehringer Mannheim, Germany). Membranes are prehybridized in Hybrisol I (Oncor, Gaithersburg, Md.) and 0.5 mg/ml sonicated salmon sperm DNA (Boehringer) at 42° C. for 3 hours and are hybridized at 42° C. with rat EP2 and mouse EP4 cDNA probes labeled with [^32P]-dCTP (Amersham, Buckinghamshire, UK) by random priming using the rediprime kit (Amersham). After hybridization, membranes are washed 4 times in 2×SSC+0.1% SDS at room temperature for a total of 1 hour and once with 0.2×SSC+0.1% SDS at 55° C. for 1 hour and then exposed to Kodak XAR 2 film at −70° C. using intensifying screens. After developing the films, bound probes are removed twice with 0.1% SDS at 80° C. and membranes are hybridized with a human GAPDH (Glyceraldehyde 3-Phosphate Dehydrogenase) cDNA probe (purchased from Clontech, Palo Alto, Calif.) for loading control. To examine if PGE2 regulates EP4 mRNA levels in vivo in bone tissue, […] male rats are injected with PGE2 (3-6 mg/Kg).

The subject of the next assay is EP2 mRNA in RP-1 cells. In words: EP2 mRNA in RP-1 cells (Northern blot). It is filed as cell-based, rat. On the procedure: as §2
For a further assay, the system named is EP2 mRNA in bone tissue. Put plainly: EP2 mRNA in rat bone tissue after systemic administration (Northern blot). It is filed as in vivo. The following applies: rats, 3-6 mg/Kg. On the procedure: For mRNA localization experiments, 5-week old Sprague-Dawley rats (Charles River) are euthanized by CO2, their tibiae and calvariae are excised, cleaned of soft tissues and frozen immediately in liquid nitrogen. For EP4 regulation experiments, 6-week old rats are given a single injection of either vehicle (7% ethanol in sterile water) or an anabolic dose of PGE2 (Cayman Chemical, Ann Arbor, Mich.), 3-6 mg/kg in the same vehicle) intraperitoneally. Animals are euthanized at several time points post-injection and their tibiae and calvariae, as well as samples from lung and kidney tissues are frozen in liquid nitrogen. Total RNA is extracted from the tibial metaphysis or diaphysis and calvaria using a guanidinium isothiocyanate-phenol-chloroform method after pulverizing frozen bone samples by a tissue homogenizer. See P. Chomczynski et al., Single-step method of RNA isolation by acid guanidium thiocyanate-phenol-chloroform extraction., Analyt Biochem, 162, 156-159 (1987), which is incorporated by reference herein in its entirety. RNA samples ([…]) are separated on 0.9% agarose/formaldehyde gels and transferred onto nylon membranes (Boehringer Mannheim, Germany). […]

The test system of a further assay is TRAB-11 cells. In words: Intracellular cAMP in TRAB-11 cells. It counts as cell-based, rat. On the procedure:
as §1

The structures appear in SMILES notation.

For the molecule `CCCCC[C@H](O)/C=C/[C@H]1[C@H](O)CC(=O)[C@@H]1C/C=C\CCCC(=O)O` [PGE2, prostaglandin E2], the entries for the “effect on intracellular cAMP” value (in the assay on RCT-3 cells; in [1]; with TRAB-11 cells) were “markedly induced”, “no effect” and “markedly induced”, respectively. Moreover, the “effect on EP4 mRNA levels” value is recorded as “rapidly increases” in assay [2] and “no effect” in the assay on EP4 mRNA in RCT-3 cells. Moreover, in assay [2], the “time of peak of EP4 mRNA levels after treatment” value was determined as 2 h. Besides, the “expression of EP4 in bone marrow cells (in situ hybridization)” value in assay [3] is recorded as “increasesd the expression”. Moreover, the “effect on EP4 mRNA levels in the tibial diaphysis” value in [4] (rats, 3-6 mg/Kg) is given as “rapidly increased”. Moreover, the “time of peak of EP4 mRNA levels in the tibial diaphysis after injection” value in [4] (rats, 3-6 mg/Kg) was 2 h. Moreover, the “effect on expression of EP4 in tibiae and calvariae” value in assay [4] (young adult rats, 3-6 mg/kg) was “upregulates”. The “time of peak of EP4 expression in tibiae and calvariae” value in [4] (young adult rats, 3-6 mg/kg) fell in the range of 1 to 2 h. Moreover, the “induction of EP2 mRNA” value with EP2 mRNA in RP-1 cells is listed as “does not induce”. Moreover, in the assay with EP2 mRNA in bone tissue, the “induction of EP2 mRNA in bone tissue” value is given as “does not induce”.
